Measurements taken from ChEMBL document CHEMBL3232945 (Eur J Med Chem, 2014).

Columns and labels:
Rattus norvegicus [1] = assay: Toxicity in […] normotensive Wistar rat assessed as mean arterial pressure at 10 mg/kg, ip after 45 mins (reference value: 94.83 +/- 0.943 mmHg); assay type: organism-based, Artery; set-up: dose 10 mg/kg, route intraperitoneal; conditions: in vivo, 0.75 h
Rattus norvegicus [2] = assay: Antihypertensive activity in Wistar rat assessed as mean arterial pressure at 10 mg/kg, ip measured immediately at 45 mins (reference value: 193.96 +/- 0.865 mmHg); assay type: functional, Artery; conditions: route intraperitoneal
Rattus norvegicus [3] = assay: Toxicity in […] normotensive Wistar rat assessed as mean arterial pressure at 10 mg/kg, ip after 30 mins (reference value: 94.68 +/- 1.213 mmHg); assay type: organism-based, Artery; set-up: dose 10 mg/kg, route intraperitoneal; conditions: in vivo, 0.5 h
Rattus norvegicus [4] = assay: Toxicity in […] normotensive Wistar rat assessed as mean arterial pressure at 10 mg/kg, ip after 60 mins (reference value: 95.07 +/- 1.973 mmHg); assay type: organism-based, Artery; set-up: dose 10 mg/kg, route intraperitoneal; conditions: in vivo, 1 h
Rattus norvegicus [5] = assay: Toxicity in […] normotensive Wistar rat assessed as mean arterial pressure at 10 mg/kg, ip measured immediately at 0 min (reference value: 94.21 +/- 2.065 mmHg); assay type: organism-based, Artery; set-up: dose 10 mg/kg, route intraperitoneal; conditions: in vivo, 0 h
Rattus norvegicus [6] = assay: Antihypertensive activity in Wistar rat assessed as mean arterial pressure at 10 mg/kg, ip measured immediately at 0 min (reference value: 194.08 +/- 1.962 mmHg); assay type: functional, Artery; conditions: route intraperitoneal
Rattus norvegicus [7] = assay: Antihypertensive activity in Wistar rat assessed as mean arterial pressure at 10 mg/kg, ip measured immediately at 60 mins (reference value: 195.11 +/- 0.531 mmHg); assay type: functional, Artery; conditions: route intraperitoneal
Rattus norvegicus [8] = assay: Antihypertensive activity in Wistar rat assessed as mean arterial pressure at 10 mg/kg, ip measured immediately at 30 mins (reference value: 194.72 +/- 1.002 mmHg); assay type: functional, Artery; conditions: route intraperitoneal
Rattus norvegicus [9] = assay: Toxicity in […] normotensive Wistar rat assessed as mean arterial pressure at 10 mg/kg, ip after 15 mins (reference value: 93.81 +/- 1.543 mmHg); assay type: organism-based, Artery; set-up: dose 10 mg/kg, route intraperitoneal; conditions: in vivo, 0.25 h
Rattus norvegicus [10] = assay: Antihypertensive activity in Wistar rat assessed as mean arterial pressure at 10 mg/kg, ip measured immediately at 15 mins (reference value: 195.68 +/- 1.623 mmHg); assay type: functional, Artery; conditions: route intraperitoneal
Rattus norvegicus [11] = assay: Toxicity in anesthetized-normotensive Wistar rat assessed as heart rate at 15 mg/kg, ip after 15 mins (reference value: 313.93 +/- 9.912 bpm); assay type: organism-based; set-up: dose 15 mg/kg, route intraperitoneal; conditions: in vivo, 0.25 h
Rattus norvegicus [12] = assay: Toxicity in anaesthetized-Wistar rat assessed as Q-T ECG interval at 15 mg/kg, ip after 45 mins (reference value: 78.8 +/- 0.927 ms); assay type: organism-based; set-up: dose 15 mg/kg, route intraperitoneal; conditions: in vivo, 0.75 h
Rattus norvegicus [13] = assay: Antiarrhythmic activity in barium chloride-induced Wistar rat assessed as increase in appearance time of arrhythmia at 15 mg/kg, ip administered 60 mins before barium chloride challenge (reference value: 129.4 +/- 4.373 sec); assay type: functional, Heart; conditions: route intraperitoneal
Rattus norvegicus [14] = assay: Toxicity in anesthetized-normotensive Wistar rat assessed as heart rate at 15 mg/kg, ip after 60 mins (reference value: 314.96 +/- 9.442 bpm); assay type: organism-based; set-up: dose 15 mg/kg, route intraperitoneal; conditions: in vivo, 1 h
Rattus norvegicus [15] = assay: Toxicity in anaesthetized-Wistar rat assessed as Q-T ECG interval at 15 mg/kg, ip after 60 mins (reference value: 79.7 +/- 0.965 ms); assay type: organism-based; set-up: dose 15 mg/kg, route intraperitoneal; conditions: in vivo, 1 h
Rattus norvegicus [16] = assay: Antiarrhythmic activity in barium chloride-induced Wistar rat assessed as increase in mortality time at 15 mg/kg, ip administered 60 mins before barium chloride challenge (reference value: 682.8 +/- 9.656 secs); assay type: functional, Heart; conditions: route intraperitoneal
Rattus norvegicus [17] = assay: Toxicity in anesthetized-normotensive Wistar rat assessed as heart rate at 15 mg/kg, ip measured immediately at 0 min (reference value: 316.62 +/- 9.643 bpm); assay type: organism-based; set-up: dose 15 mg/kg, route intraperitoneal; conditions: in vivo, 0 h
Rattus norvegicus [18] = assay: Toxicity in anesthetized-normotensive Wistar rat assessed as heart rate at 15 mg/kg, ip after 30 mins (reference value: 317.68 +/- 7.631 bpm); assay type: organism-based; set-up: dose 15 mg/kg, route intraperitoneal; conditions: in vivo, 0.5 h

| Compound | Activity (Rattus norvegicus [1]) [mmHg] | Activity (Rattus norvegicus [2]) [mmHg] | Activity (Rattus norvegicus [3]) [mmHg] | Activity (Rattus norvegicus [4]) [mmHg] | Activity (Rattus norvegicus [5]) [mmHg] | Activity (Rattus norvegicus [6]) [mmHg] | Activity (Rattus norvegicus [7]) [mmHg] | Activity (Rattus norvegicus [8]) [mmHg] | Activity (Rattus norvegicus [9]) [mmHg] | Activity (Rattus norvegicus [10]) [mmHg] | Activity (Rattus norvegicus [11]) [bpm] | Activity (Rattus norvegicus [12]) [min] | Time (Rattus norvegicus [13]) [s] | Activity (Rattus norvegicus [14]) [bpm] | Activity (Rattus norvegicus [15]) [ms] | Time (Rattus norvegicus [16]) [s] | Activity (Rattus norvegicus [17]) [bpm] | Activity (Rattus norvegicus [18]) [bpm] |
| --- | --- | --- | --- | --- | --- | --- | --- | --- | --- | --- | --- | --- | --- | --- | --- | --- | --- | --- |
| CC(C)NCC(O)COc1cccc2ccccc12 (stereo not drawn) [PROPRANOLOL] | 65.87 | 120.32 | 62.96 | 70.21 | 92.56 | 195.12 | 152.26 | 148.53 | 79.43 | 171.73 |  |  |  |  |  |  |  |  |
| C=C[C@H]1CN2CC[C@H]1C[C@@H]2[C@@H](O)c1ccnc2ccc(OC)cc12 [QUINIDINE] |  |  |  |  |  |  |  |  |  |  | 285.16 | 91.3 | 394.8 | 286.32 | 90.6 | 1281.8 | 311.8 | 246.18 |
